Patent US12544395B2, “Combination compositions comprising a beta-lactamase inhibitor and uses thereof” (priority 2018, dated 2026)

Tests used:
Assay type in all cases: cell-based
Settings in all cases: with inhibitor at 4 μg/mL
E. coli Si-FDL-GES = assay: microbe, parasite or virus in culture
K. pneumoniae 319478 = assay: Broth microdilution MIC (strain enzymes: SHV-12, CTX-M3 and TEM-1)
K. pneumoniae KP 8 = assay: Broth microdilution MIC (strain enzymes: TEM-10, TEM-1, CTX-M15)
K. pneumoniae ESBL 10 = assay: Broth microdilution MIC (strain enzymes: SHV-12, TEM-1)
E. coli 3327 = assay: Broth microdilution MIC (strain enzymes: TEM-1, SHV-12)
E. coli 2150 = assay: Broth microdilution MIC (strain enzymes: SHV-3, TEM-1)
E. coli ESBL 5 = assay: Broth microdilution MIC (strain enzymes: CTX-M15, TEM-1)
K. pneumoniae ESBL 8 #2 = assay: Broth microdilution MIC (strain enzymes: SHV-12, TEM-1)
K. pneumoniae ESBL 8 #1 = assay: Broth microdilution MIC (strain enzymes: TEM-1, SHV-12)
K. pneumoniae 304487 = assay: Broth microdilution MIC (strain enzymes: SHV-12,TEM-1)
E. coli SI-LP377 = assay: microbe, parasite or virus in culture
E. coli SI-AIRT-4 = assay: Broth microdilution MIC (strain enzymes: TEM-1)
K. pneumoniae BAA 1705 = assay: Broth microdilution MIC (strain KPC-producing)
E. coli 3174 = assay: Broth microdilution MIC (strain enzymes: TEM-1, CTXM-15)
K. pneumoniae ESBL 7 #2 = assay: Broth microdilution MIC (strain enzymes: SHV-12, CTX-M15, TEM-1)
[1] = tested on: panel of ESBL-producing Enterobacteriaceae (40 strains); assay: Broth microdilution MIC50/MIC90 summary over the panel
K. pneumoniae KPN 508 = assay: Broth microdilution MIC (strain enzymes: SHV-7, TEM-1)
K. pneumoniae 115468 = assay: Broth microdilution MIC (strain enzymes: TEM-1)
E. coli BAS 1 = assay: Broth microdilution MIC (strain enzymes: none detected)

## O=C(O)[C@H]1/C(=C/CO)O[C@@H]2CC(=O)N21 [Clavulanic acid, clavulanic acid, reference compound]
E. coli Si-FDL-GES
  MIC of cefalexin (LEX): 1 µg/mL
  MIC of cefdinir (CDR): 1 µg/mL
  MIC of cefixime (CFM): 0.5 µg/mL
  MIC of ceftibuten (CTB): 0.25 µg/mL
K. pneumoniae 319478
  MIC of cefalexin (LEX): 0.5 µg/mL
  MIC of cefdinir (CDR): 0.5 µg/mL
  MIC of cefixime (CFM): 0.5 µg/mL
  MIC of ceftibuten (CTB): 0.06 µg/mL
K. pneumoniae KP 8
  MIC of cefalexin (LEX): 0.125 µg/mL
  MIC of cefdinir (CDR): 0.125 µg/mL
  MIC of cefixime (CFM): 0.06 µg/mL
  MIC of ceftibuten (CTB): 0.06 µg/mL
K. pneumoniae ESBL 10
  MIC of cefalexin (LEX): 0.5 µg/mL
  MIC of cefdinir (CDR): 0.5 µg/mL
  MIC of cefixime (CFM): 0.125 µg/mL
  MIC of ceftibuten (CTB): 0.125 µg/mL
E. coli 3327
  MIC of cefalexin (LEX): 0.5 µg/mL
  MIC of cefdinir (CDR): 0.5 µg/mL
  MIC of cefixime (CFM): 2 µg/mL
  MIC of ceftibuten (CTB): 1 µg/mL
E. coli 2150
  MIC of cefalexin (LEX): 0.5 µg/mL
  MIC of cefdinir (CDR): 0.5 µg/mL
  MIC of cefixime (CFM): 1 µg/mL
  MIC of ceftibuten (CTB): 0.5 µg/mL
E. coli ESBL 5
  MIC of cefalexin (LEX): 1 µg/mL
  MIC of cefdinir (CDR): 1 µg/mL
  MIC of cefixime (CFM): 1 µg/mL
  MIC of ceftibuten (CTB): 0.5 µg/mL
K. pneumoniae ESBL 8 #2
  MIC of cefalexin (LEX): 0.125 µg/mL
  MIC of cefdinir (CDR): 0.125 µg/mL
  MIC of cefixime (CFM): 0.03 µg/mL
  MIC of ceftibuten (CTB): 0.06 µg/mL
K. pneumoniae ESBL 8 #1
  MIC of cefalexin (LEX): 0.06 µg/mL
  MIC of cefdinir (CDR): 0.06 µg/mL
  MIC of cefixime (CFM): 0.06 µg/mL
  MIC of ceftibuten (CTB): 0.03 µg/mL
K. pneumoniae 304487
  MIC of cefalexin (LEX): 0.5 µg/mL
  MIC of cefdinir (CDR): 0.5 µg/mL
  MIC of cefixime (CFM): 0.25 µg/mL
  MIC of ceftibuten (CTB): 0.125 µg/mL
E. coli SI-LP377
  MIC of cefalexin (LEX): 1 µg/mL
  MIC of cefdinir (CDR): 1 µg/mL
  MIC of cefixime (CFM): 0.5 µg/mL
  MIC of ceftibuten (CTB): 0.125 µg/mL
E. coli SI-AIRT-4
  MIC of cefalexin (LEX): 0.25 µg/mL
  MIC of cefdinir (CDR): 0.25 µg/mL
  MIC of cefixime (CFM): 0.25 µg/mL
  MIC of ceftibuten (CTB): 0.5 µg/mL
K. pneumoniae BAA 1705
  MIC of cefalexin (LEX): >32 µg/mL
  MIC of cefdinir (CDR): >32 µg/mL
  MIC of cefixime (CFM): >32 µg/mL
  MIC of ceftibuten (CTB): 8 µg/mL
E. coli 3174
  MIC of cefalexin (LEX): 0.25 µg/mL
  MIC of cefdinir (CDR): 0.25 µg/mL
  MIC of cefixime (CFM): 0.5 µg/mL
  MIC of ceftibuten (CTB): 0.5 µg/mL
K. pneumoniae ESBL 7 #2
  MIC of cefalexin (LEX): >32 µg/mL
  MIC of cefdinir (CDR): >32 µg/mL
  MIC of cefixime (CFM): >32 µg/mL
  MIC of ceftibuten (CTB): >32 µg/mL
[1]
  Cefdinir MIC50: 0.5 µg/mL
  Cefdinir MIC90: 2 µg/mL
  Cefixime MIC50: 0.5 µg/mL
  Cefixime MIC90: 2 µg/mL
  Cefpodoxime MIC50: 0.5 µg/mL
  Cefpodoxime MIC90: 4 µg/mL
  Ceftibuten MIC50: 0.25 µg/mL
  Ceftibuten MIC90: 2 µg/mL
  Cephalexin MIC50: 16 µg/mL
  Cephalexin MIC90: 32 µg/mL
K. pneumoniae KPN 508
  MIC of cefalexin (LEX): 0.125 µg/mL
  MIC of cefdinir (CDR): 0.125 µg/mL
  MIC of cefixime (CFM): 0.25 µg/mL
  MIC of ceftibuten (CTB): 0.06 µg/mL
K. pneumoniae 115468
  MIC of cefalexin (LEX): 0.06 µg/mL
  MIC of cefdinir (CDR): 0.06 µg/mL
  MIC of cefixime (CFM): 0.125 µg/mL
  MIC of ceftibuten (CTB): 0.25 µg/mL
E. coli BAS 1
  MIC of cefalexin (LEX): 16 µg/mL
  MIC of cefdinir (CDR): 16 µg/mL
  MIC of cefixime (CFM): >32 µg/mL
  MIC of ceftibuten (CTB): >32 µg/mL
